Results as given in paper PMC12951562, “SH2scan: Mapping SH2 Domain-Ligand Binding Selectivity for Inhibitors and Degraders” (Journal of Medicinal Chemistry, 2026).
Several values for one entry are separate records, joined by “and”; a condition that tells them apart may be missing. Equal entries are not always repeated. Where two headings read alike, the source gives them in different places. Non-standard residues stand in square brackets, D forms with d. Residues, ends and D or L forms follow the SMILES beside them. *: point of attachment. pY = N[C@@H](Cc1ccc(OP(=O)(O)O)cc1)C(=O)O; Caffeoyl = O=C(/C=C/c1ccc(O)c(O)c1)*

Key:
Test in all cases: biochemical
Assay type in all cases: binding
VAV3 = biological target: T1, VAV3 (Homo sapiens, UniProt Q9UKW4); conditions: for percent of DMSO vehicle control at 10 µM / remaining activity at 10 µM: read-out: percent of DMSO vehicle control
T1 construct: made in house; host or cells: HEK293 (transient transfection), unpurified extract
T1 sequence (Q9UKW4 1-847): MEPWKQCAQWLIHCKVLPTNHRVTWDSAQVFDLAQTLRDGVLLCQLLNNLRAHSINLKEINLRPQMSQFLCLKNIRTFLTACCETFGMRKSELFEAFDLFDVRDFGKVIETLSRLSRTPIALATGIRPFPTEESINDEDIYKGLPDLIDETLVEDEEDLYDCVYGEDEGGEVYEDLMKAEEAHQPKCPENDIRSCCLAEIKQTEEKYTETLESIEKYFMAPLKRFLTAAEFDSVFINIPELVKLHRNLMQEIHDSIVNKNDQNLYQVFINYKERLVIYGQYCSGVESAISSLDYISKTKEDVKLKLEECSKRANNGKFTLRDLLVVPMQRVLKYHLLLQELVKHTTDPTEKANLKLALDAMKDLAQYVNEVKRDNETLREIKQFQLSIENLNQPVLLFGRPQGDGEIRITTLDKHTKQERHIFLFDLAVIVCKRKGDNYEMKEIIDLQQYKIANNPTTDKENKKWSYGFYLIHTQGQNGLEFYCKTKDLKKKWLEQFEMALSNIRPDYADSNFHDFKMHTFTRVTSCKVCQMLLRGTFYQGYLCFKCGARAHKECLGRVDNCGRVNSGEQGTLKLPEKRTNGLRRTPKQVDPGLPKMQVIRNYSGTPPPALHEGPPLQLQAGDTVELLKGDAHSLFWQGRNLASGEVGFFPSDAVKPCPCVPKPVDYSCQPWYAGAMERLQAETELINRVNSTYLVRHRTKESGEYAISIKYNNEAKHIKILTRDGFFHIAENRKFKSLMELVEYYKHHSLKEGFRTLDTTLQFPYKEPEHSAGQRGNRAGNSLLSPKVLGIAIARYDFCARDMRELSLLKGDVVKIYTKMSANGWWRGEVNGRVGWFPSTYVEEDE

NCK2 = biological target: T2, NCK2 (Homo sapiens, UniProt O43639); conditions: for remaining activity at 10 µM: read-out: percent of DMSO vehicle control
T2 construct: the DNA-tagged SH2 domain concentrations used in this study were <0.1 nM; made in house; host or cells: HEK293 (transient transfection, unpurified extract)
T2 sequence (O43639 285-380 limits assumed): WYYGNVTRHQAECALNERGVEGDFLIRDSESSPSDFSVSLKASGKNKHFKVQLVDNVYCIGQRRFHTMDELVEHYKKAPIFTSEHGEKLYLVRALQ

CRK = biological target: T3, CRK (Homo sapiens, UniProt P46108); conditions: for percent of DMSO vehicle control at 10 µM / remaining activity at 10 µM: read-out: percent of DMSO vehicle control
T3 construct: the DNA-tagged SH2 domain concentrations used in this study were <0.1 nM; made in house; host or cells: HEK293 (transient transfection; unpurified extract)
T3 sequence (P46108 13-118 limits assumed): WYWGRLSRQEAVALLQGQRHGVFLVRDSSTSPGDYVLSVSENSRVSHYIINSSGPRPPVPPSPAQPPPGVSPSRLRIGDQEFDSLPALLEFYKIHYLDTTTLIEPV

FES = biological target: T4, FES (Homo sapiens, UniProt P07332); conditions: for remaining activity at 10 µM: read-out: percent of DMSO vehicle control
T4 construct: the DNA-tagged SH2 domain concentrations used in this study were <0.1 nM; made in house; host or cells: HEK293 (transient transfection; unpurified extract)
T4 sequence (P07332 460-549 limits assumed): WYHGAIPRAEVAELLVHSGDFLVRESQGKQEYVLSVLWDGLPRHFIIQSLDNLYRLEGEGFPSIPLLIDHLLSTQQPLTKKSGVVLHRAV

PIK3R3(SH2dom.N-term.) = biological target: T5, PIK3R3(SH2dom.N-term.) (Homo sapiens, UniProt Q92569); conditions: for remaining activity at 10 µM: read-out: percent of DMSO vehicle control
T5 construct: SH2dom.N-term. denotes SH2 domain closest to N-terminus of protein; made in house; host or cells: HEK293 (transient transfection, unpurified extract)

PTPN6(SH2dom.C-term.) = biological target: T6, PTPN6(SH2dom.C-term.) (Homo sapiens, UniProt P29350); conditions: for remaining activity at 10 µM: read-out: percent of DMSO vehicle control
T6 construct: SH2dom.C-term. denotes SH2 domain closest to C-terminus of protein; made in house; host or cells: HEK293 (transient transfection, unpurified extract)
T6 sequence (P29350 110-213 limits assumed): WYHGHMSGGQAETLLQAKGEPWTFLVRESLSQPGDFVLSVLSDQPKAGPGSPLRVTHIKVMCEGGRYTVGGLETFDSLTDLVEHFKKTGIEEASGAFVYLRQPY

SLAP2 = biological target: T7, SLAP2 (Homo sapiens, UniProt Q9H6Q3); conditions: for remaining activity at 10 µM: read-out: percent of DMSO vehicle control
T7 construct: made in house; host or cells: HEK293 (transient transfection), unpurified extract
T7 sequence (Q9H6Q3 1-261): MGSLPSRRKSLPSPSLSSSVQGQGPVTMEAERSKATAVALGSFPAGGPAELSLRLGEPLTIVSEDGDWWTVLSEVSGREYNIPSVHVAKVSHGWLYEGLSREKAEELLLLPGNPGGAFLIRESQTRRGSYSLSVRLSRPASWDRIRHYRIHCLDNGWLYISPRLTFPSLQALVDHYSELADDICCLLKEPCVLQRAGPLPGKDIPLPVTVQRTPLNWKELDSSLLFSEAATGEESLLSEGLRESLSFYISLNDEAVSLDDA

PLCG1(SH2dom.C-term.) = biological target: T8, PLCG1(SH2dom.C-term.) (Homo sapiens, UniProt P19174); conditions: for remaining activity at 10 µM: read-out: percent of DMSO vehicle control
T8 construct: SH2dom.C-term. denotes SH2 domain closest to C-terminus of protein; made in house; host or cells: HEK293 (transient transfection, unpurified extract)
T8 sequence (P19174 668-756 limits assumed): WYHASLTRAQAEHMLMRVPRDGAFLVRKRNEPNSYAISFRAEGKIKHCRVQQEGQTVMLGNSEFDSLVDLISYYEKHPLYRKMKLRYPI

STAP2 = biological target: T9, STAP2 (Homo sapiens, UniProt Q9UGK3); conditions: for percent of DMSO vehicle control at 10 µM / remaining activity at 10 µM: read-out: percent of DMSO vehicle control
T9 construct: made in house; host or cells: HEK293 (transient transfection), unpurified extract
T9 sequence (Q9UGK3 1-403): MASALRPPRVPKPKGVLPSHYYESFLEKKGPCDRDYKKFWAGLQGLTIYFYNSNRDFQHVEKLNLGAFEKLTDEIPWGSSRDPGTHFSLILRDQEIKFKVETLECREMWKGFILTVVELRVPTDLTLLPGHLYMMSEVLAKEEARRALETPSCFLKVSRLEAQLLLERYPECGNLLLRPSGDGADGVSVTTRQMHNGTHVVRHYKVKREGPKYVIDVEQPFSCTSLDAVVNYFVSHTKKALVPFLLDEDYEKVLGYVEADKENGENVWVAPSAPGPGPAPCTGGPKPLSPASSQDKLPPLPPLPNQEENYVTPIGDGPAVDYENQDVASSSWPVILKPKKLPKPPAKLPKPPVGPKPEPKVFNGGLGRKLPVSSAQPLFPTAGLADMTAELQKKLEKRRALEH

Structure (SMILES)	percent of DMSO vehicle control at 10 µM (VAV3)	remaining activity at 10 µM (NCK2)	percent of DMSO vehicle control at 10 µM (CRK)	remaining activity at 10 µM (FES)	remaining activity at 10 µM (PIK3R3(SH2dom.N-term.))	remaining activity at 10 µM (PTPN6(SH2dom.C-term.))	remaining activity at 10 µM (SLAP2)	remaining activity at 10 µM (PLCG1(SH2dom.C-term.))	percent of DMSO vehicle control at 10 µM (STAP2)	remaining activity at 10 µM (VAV3; primary screen, 10 μM)	remaining activity at 10 µM (NCK2; primary screen, 10 μM)	remaining activity at 10 µM (CRK; primary screen, 10 μM)	remaining activity at 10 µM (FES; primary screen, 10 μM)	remaining activity at 10 µM (PIK3R3(SH2dom.N-term.); primary screen, 10 μM)	remaining activity at 10 µM (PTPN6(SH2dom.C-term.); primary screen, 10 μM)	remaining activity at 10 µM (SLAP2; primary screen, 10 μM)	remaining activity at 10 µM (PLCG1(SH2dom.C-term.); primary screen, 10 μM)	remaining activity at 10 µM (STAP2; primary screen, 10 μM)	other results
NC(=O)CC[C@H](NC(=O)[C@@H]1CC[C@@H]2CCN(C(=O)CCCCCC#Cc3cccc4c3CN(C3CCC(=O)NC3=O)C4=O)C[C@H](NC(=O)c3cc4cc(C(F)(F)P(=O)(O)O)ccc4[nH]3)C(=O)N21)C(=O)NC(c1ccccc1)c1ccccc1 (some centres unmarked) [SD-36]	82.1 ± 3.8%	80 ± 38.4%	77 ± 13.9%	46.3 ± 7.5%	111 ± 7.3%	108 ± 6.9%	95.7 ± 9.9%	85.7 ± 0.8%	36.1 ± 5.4%	–	–	–	–	–	–	–	–	–	–
CC(C)(C)[C@H](NC(=O)/C=C/c1ccc(OP(=O)(O)O)cc1)C(=O)N1CCC[C@H]1C(=O)N(c1ccccc1)c1ccc(I)cc1 [STAT6-IN-3]	–	–	–	–	–	–	–	–	–	76.8 ± 21.6%	102 ± 68.4%	80.4 ± 9.5%	82 ± 13.1%	85.8 ± 16.7%	136 ± 30.6%	92.1 ± 16.6%	24.7 ± 7%	56.9 ± 15.1%	Kd (PLCG1(SH2dom.C-term.); dose-response, read-out: KD): 3800 ± 280 nM
CC[C@H](C)[C@H](NC(=O)[C@H](CCC(=O)O)NC(=O)[C@H](CCC(=O)O)NC(=O)[C@H](Cc1ccc(OP(=O)(O)O)cc1)NC(C)=O)C(=O)N[C@@H](CCC(=O)O)C(N)=O [Ac-pYEEIE-NH2] (Ac-[pY]EEIE-NH2)	–	–	–	–	–	–	–	–	–	–	–	–	–	–	–	–	–	–	percent of DMSO vehicle control (VAV3; primary screen, 10 μM): 75.8%; percent of DMSO vehicle control (NCK2; primary screen, 10 μM): 74.9%; percent of DMSO vehicle control (CRK; primary screen, 10 μM): 114.0%; Kd (FES): 4200 nM; percent of DMSO vehicle control (FES; primary screen, 10 μM): 24.1±2.4%; percent of DMSO vehicle control (PIK3R3(SH2dom.N-term.); primary screen, 10 μM): 85.7%; percent of DMSO vehicle control (PTPN6(SH2dom.C-term.); primary screen, 10 μM): 110.0%; percent of DMSO vehicle control (SLAP2; primary screen, 10 μM): 202.8%; percent of DMSO vehicle control (PLCG1(SH2dom.C-term.); primary screen, 10 μM): 37.9±3.6%; percent of DMSO vehicle control (STAP2; primary screen, 10 μM): 80.1±5.7%
O=C(CCl)Nc1cccc(CNC(=O)[C@H](Cc2ccc(OP(=O)(O)O)cc2)NC(=O)Cc2ccc(F)cc2)c1 [MN551]	–	–	–	–	–	–	–	–	–	113%	81.5 ± 3%	72.1 ± 0.5%	82.1 ± 4.3%	97.7%	147%	81.6 ± 2.1%	64.1 ± 4.5%	143%	–
CC(=O)N[C@@H](Cc1ccc(CP(=O)(O)O)cc1)C(=O)NC1(C(=O)N[C@@H](CC(N)=O)C(=O)NCCCc2c(O)ccc3ccccc23)CCCCC1 [CGP78850]	21.7 ± 3.7%	111 ± 23.7%	88.3 ± 0.9%	52 ± 0.5%	111 ± 10.3%	130.9 ± 0.8%	91.4 ± 15.3%	96.8 ± 4.1%	86 ± 7.4%	–	–	–	–	–	–	–	–	–	Kd (VAV3): 860 nM
CC(=O)N1CC[C@H]2CC[C@@H](C(=O)N[C@@H](CCC(N)=O)C(=O)NC(c3ccccc3)c3ccccc3)N2C(=O)[C@@H](NC(=O)c2cc3cc(C(F)(F)P(=O)(O)O)ccc3[nH]2)C1 [SI-109]	130%	121%	119%	160%	142%	119%	121%	98 ± 1.4%	130%	–	–	–	–	–	–	–	–	–	–
CC[C@H](C)[C@H](NC(=O)[C@H](CCC(=O)O)NC(=O)[C@H](CCC(=O)O)NC(=O)[C@H](Cc1ccc(OP(=O)(O)O)cc1)NC(=O)/C=C/c1ccc(O)c(O)c1)C(=O)N[C@@H](CCC(=O)O)C(=O)O [Caffeic acid-pYEEIE] (Caffeoyl-[pY]EEIE-OH)	0.4 ± 0.1%	2.8 ± 3.1%	3.1 ± 2.8%	2.2 ± 0.4%	0.6%	114 ± 11%	5.3 ± 3.8%	0%	58.7 ± 7.4%	–	–	–	–	–	–	–	–	–	Kd (VAV3): 70 ± 12 nM; Kd (NCK2): 210 ± 59 nM; Kd (CRK): 2300 ± 670 nM; Kd (FES): 24 ± 4.9 nM; Kd (PIK3R3(SH2dom.N-term.)): 150 ± 20 nM; Kd (SLAP2; KD, dose-response): 310 nM and 314 nM; Kd (PLCG1(SH2dom.C-term.)): 14 ± 11 nM; Kd (STAP2): 23200 nM
O=C(COc1ccc2cc(C(=O)Nc3ccccc3)ccc2c1)NCc1ccc(OP(=O)(O)O)c(OP(=O)(O)O)c1 [Stafib-1]	–	–	–	–	–	–	–	–	–	102%	91.4 ± 35.1%	90.2 ± 5.9%	116%	105%	179%	90.4 ± 6.1%	78.8 ± 17.8%	78.7 ± 36.1%	–
C/C(=C\C(=O)N[C@H](C(=O)N1CCC[C@H]1C(=O)N(c1ccccc1)c1ccc(I)cc1)C(C)(C)C)c1ccc(OP(=O)(O)O)cc1 [STAT6-IN-1]	–	–	–	–	–	–	–	–	–	40.3 ± 1.3%	66.2 ± 8.2%	34.5 ± 1.8%	66.3 ± 6.4%	48.3 ± 1.7%	45.8 ± 7.8%	55.8 ± 2.8%	1.5 ± 2.1%	58.4 ± 51.4%	Kd (CRK; dose-response, read-out: KD): 2004 ± 5.9 nM; Kd (PLCG1(SH2dom.C-term.); dose-response, read-out: KD): 2050 ± 210 nM; Kd (STAP2; dose-response, read-out: KD): 16300 nM
